Assays:
Type in all cases: cell-based
[1] = test system: HCT-116, NCI-H460, SUM149PT, MDA-MB-436 cells; assay: Combination viability assay (CTG, Bliss synergy); conditions: HRP (HCT-116, NCI-H460) and HRD (SUM149PT, MDA-MB-436) cells, 7 days
Procedure: (§1) For combination analysis, cells were seeded in 70 μl of media in 384-well plates pre-dosed with compounds (5-point dose–response matrix) with a D300e digital dispenser (Tecan). Cell proliferation was determined after 7 days using CTG. Analysis was performed with Genedata Screener (Compound Synergy Extension) to determine Synergy scores (Bliss model), using a formulation whereby the Blissexcess is a continuous value and values higher than 2 are usually considered synergistic, and values between 0 and 2 are usually considered additive.

RD-ES cells = assay: Combination viability assay (CTG, Bliss synergy); conditions: 7 days
[2] = test system: SUM149PT 53BP1KO and SHLD2KO cells; assay: Combination viability assay (CTG, Bliss synergy); conditions: SUM149PT with 53BP1 or SHLD2 genetically ablated, 7 days
Procedure: as §1

DLD-1 BRCA2KO cells = assay: Combination viability assay (CTG, Bliss synergy); conditions: 7 days
Procedure: For combination analysis, cells were seeded in 70 μl of media in 384-well plates pre-dosed with compounds (5-point dose–response matrix) with a D300e digital dispenser (Tecan). Cell proliferation was determined after 7 days using CTG.

DLD-1 WT cells = assay: Combination viability assay (CTG, Bliss synergy); conditions: 7 days
Procedure: as §1

[3] = test system: SUM149PT 53BP1KO and SHLD2KO cells; assay: Cell viability assay (CTG), 7 days, PARP inhibitor resistant models; conditions: less sensitive than parental
Procedure: Cells were seeded in 150 μl of media in 96-well plates or in 70 μl of media in 384-well plates pre-dosed with compounds (8–10 points dose response) with a D300e digital dispenser (Tecan) and incubated for 24 h at 37°C and 5% CO2. Cell proliferation at the end of the assay (7 days) was measured using CTG (Promega, G9243). CTG luminescence was normalized to vehicle treated control for each cell line, and data were fitted with a nonlinear regression curve (four parameters) to generate compound sensitivity curves and determine IC50 or EC50 (half maximal inhibitory/effective concentration) values as indicated.

Molecule: COc1ncnc(C2CC2)c1-c1ncc2cnn(Cc3ccc(-c4nc(C(F)(F)F)cn4C(C)C)cc3)c2n1 [KSQ-4279]
- Combination benefit with MSC778 [1]: particularly strong

Molecule: NC(=O)c1cccc2cn(-c3ccc([C@@H]4CCCNC4)cc3)nc12 [niraparib]
- Combination effect with MSC778 (RD-ES cells): combination benefit

Molecule: O=C(c1cc(Cc2n[nH]c(=O)c3ccccc23)ccc1F)N1CCN(C(=O)C2CC2)CC1 [olaparib]
- Combination effect with MSC778 [2]: synergized
- Combination effect with MSC778 (RD-ES cells): combination benefit

Molecule: Cn1cncc1-c1c(F)cncc1NC(=O)c1c(N)nn2cc(F)cnc12 [Tuvusertib]
- Combination effect with MSC778 (DLD-1 BRCA2KO cells): at best weakly additive

Molecule: PDD00017273
- Combination effect with MSC778 (DLD-1 WT cells): Synergistic
- Combination effect with MSC778 (RD-ES cells): limited to additivity

Molecule: Cn1ncnc1[C@H]1c2n[nH]c(=O)c3cc(F)cc(c23)N[C@@H]1c1ccc(F)cc1 [talazoparib, reference compound]
- Change in sensitivity of SUM149PT 53BP1KO and SHLD2KO cells versus parental cells [3]: ~20 fold
- Combination effect with MSC778 [2]: synergized

Molecule: C[C@]1(c2nc3c(C(N)=O)cccc3[nH]2)CCCN1 [veliparib]
- Combination effect with MSC778 (RD-ES cells): combination benefit

Molecule: Cc1nc(C)c(Cn2c(=O)n(-c3ncns3)c3cc(S(=O)(=O)NC4(C)CC4)ccc32)s1 [PDD00017238]
- Combination effect with MSC778 (DLD-1 WT cells): Synergistic
- Combination benefit with MSC778 [1]: particularly strong

Source: publication PMC12684391, “Mechanistic insights into the monotherapy and combination potential of FEN1 inhibition in cancer therapy” (Nucleic Acids Research, 2025)
